Experiments:
[1] = test system: chinchilla model of acute noise-induced hearing loss; experiment: Chinchilla model of acute noise-induced hearing loss (auditory brainstem response thresholds); assay type: in vivo; details: 60 mg/kg i.p., doses 12 hours apart, 5 pre- and 5 post-noise; 21 days after noise exposure; p<0.01
Experimental: The otoprotective efficacy of COMPOUND X (i.e. the ability to prevent or reduce the development of permanent acute noise-induced hearing loss) was investigated using a chinchilla model of acute noise-induced hearing loss, as follows:
Subjects comprised male, 3 year old chinchillas (Laniger), 10 animals per group.
Vehicle (20% Captisol®, 0.5% w/v HPMC K15M and 0.5% w/v Tween-80™) was prepared using autoclaved deionized water not more than one week prior to use. A suspension of COMPOUND X in the vehicle at 10 mg/ml was prepared less than 24 hours prior to administration. COMPOUND X was administered at 60 mg/kg via the intraperitoneal route, with doses 12 hours apart. Five injections were given pre-noise exposure and five post-noise exposure. […]
Auditory brainstem responses (ABRs) were collected prior to noise exposure and 21 days after noise exposure. […] Thresholds were measured in response to tone-bursts with 1 ms rise/fall and a 0 ms plateau gated by a Blackman envelope and centred at the frequencies of 2, 4, 6 and 8 kHz, presented at 30/s. […]
The thresholds for ABRs at the four different sound frequencies at day 21 post-noise exposure were compared to the thresholds at baseline, prior to noise exposure in order to determine a threshold shift for each animal. The data were then analysed using a 2-way ANOVA, with treatment and frequency as main factors.

[2] = test system: aged and young Fischer 344 (F344) rats; experiment: Model of central auditory processing deficit: auditory gap detection (gap-induced PPI of startle) in F344 rats; assay type: in vivo, rat
Experimental: The ability of COMPOUND X to improve auditory temporal processing in the rat, was examined using an auditory gap detection procedure in aged female Fischer 344 (F344) rats with an average age of 19.5±1.9 months, and in young F344 rats with an average age of 3 months. COMPOUND X, at doses of 30 or 60 mg/kg, or vehicle were administered via the intraperitoneal route on three test occasions using a crossover design, with an interval of at least 7 days between occasions.
Hearing thresholds in each rat were determined under anaesthesia using the auditory brainstem response (ABR) prior to the first drug administration. ABRs were recorded using subcutaneous needle electrodes in a sound attenuated chamber using pure tone bursts as stimuli (5 ms duration, frequency range 2-40 kHz).
The gap detection procedure evaluated the ability of the rats to detect short gaps in background noise by measuring the degree of inhibition that the gap afforded in the animal's startle response to a subsequent loud sound, a phenomenon known as pre-pulse inhibition (PPI). Testing was performed in a sound attenuated chamber. During the testing procedure, the rat was confined to a small wire mesh cage on a motion-sensitive platform. The animal's reflex movements were detected and transduced by a piezoelectric accelerometer. The startle response was evaluated in a 100 ms window beginning at the onset of the startle stimulus (a 110 dB SPL broad-band noise burst of 50 ms duration embedded in a background continuous broad-band noise of 65 dB SPL). Acoustic stimulation was presented via a loudspeaker placed 12 cm above the platform inside the chamber.
PPI of the startle response was induced by gaps of different durations (5-50 ms) preceding the startle stimulus by 70 ms. The degree of PPI was calculated from the startle response amplitude in the presence of the gap relative to the startle response amplitude in the absence of the gap. A two-way ANOVA with the Bonferroni post-hoc test was used to compare the degree of PPI before and after the drug applications.

[3] = test system: Long Evans adult rats with noise-induced tinnitus; experiment: Model of tinnitus: gap pre-pulse inhibition of acoustic startle in noise-exposed Long Evans rats; assay type: in vivo, rat
Experimental: Twenty Long Evans adult rats were exposed to a unilateral 116 dB, 16 kHz octave-band noise for one hour in order to induce hearing loss and chronic tinnitus. Ten control rats received a sham noise exposure. Approximately thirty days after the noise exposure hearing thresholds were determined for each animal. Animals were then assessed for the presence of tinnitus using a gap pre-pulse inhibition of acoustic startle paradigm similar to that described by Turner J G, Brozoski T J, Bauer C A, Parrish J L, Myers K, Hughes L F, Caspary D M. Behav Neurosci. 2006 February; 120(1):188-95. In this test, rats were placed on a motion sensor that measured the startle amplitude of the animals in response to a sudden loud sound (115-dB SPL, 20-ms duration) emitted by a loudspeaker located in the ceiling of the cage. It is known that a brief, non-startling sound or “pre-pulse”, prior to the startle sound can reduce the startle amplitude, a phenomenon known as pre-pulse inhibition. In the present study, the pre-pulse is substituted by a 50 ms silence gap in a constant sound 100 ms prior to the startle sound. If the gap is perceived by the animal, then then startle response will be inhibited. However, if the animal has tinnitus, then the tinnitus sound may fill the gap and will startle as if there were no gap (reduced or absent gap pre-pulse inhibition). A drug that reduces the tinnitus will therefore restore gap pre-pulse inhibition.
The pitch of tinnitus is typically in the same range as the hearing loss, which in turn is most marked at the frequencies of the noise trauma. Thus each animal was tested for gap pre-pulse inhibition using gaps in tones of 10, 12.5, 16, 20, and 25 kHz at 60-65 dB SPL. As a control, the animals were also tested with gaps in a broadband sound of the same amplitude. Irrespective of whether the animals have tinnitus, it is unlikely that the tinnitus would fill the gap in the broadband sound, and thus this provides a control for whether the noise-trauma might have affected the gap detection ability of the rats. […]

[4] = test system: Kv3 channels; details: cited from earlier work

Structure (SMILES)	permanent threshold shift in ABR [1]	degree of PPI (gap detection) ([2]; aged F344 rats, 30 mg/kg i.p., 30 ms gap duration, p<0.001)	degree of PPI (gap detection) ([2]; aged F344 rats, 30 mg/kg i.p., gap durations of 5, 10, and 15 ms)	degree of PPI (gap detection) ([2]; aged F344 rats, 60 mg/kg i.p., 30 ms gap duration, p<0.001)	degree of PPI (gap detection) ([2]; young F344 rats, 30 mg/kg i.p.)	degree of PPI (gap detection) ([2]; young F344 rats, 60 mg/kg i.p.)	gap pre-pulse inhibition ([3]; animals with evidence of tinnitus, 30 mg/kg i.p. 1-2 hours prior to testing, p<0.05)	gap pre-pulse inhibition ([3]; animals with evidence of tinnitus, 60 mg/kg i.p. 1-2 hours prior to testing, p=0.01)	gap pre-pulse inhibition ([3]; control animals or noise-exposed animals without tinnitus)	inhibition of Kv3 channels [4]
CC[C@@]1(C)NC(=O)N(c2cnc(Oc3ccc(C)c(OC(F)(F)F)c3)nc2)C1=O [COMPOUND X, (5R)-5-ethyl-5-methyl-3-[2-({4-methyl-3-[(trifluoromethyl)oxy]phenyl}oxy)-5-pyrimidinyl]-2,4-imidazolidinedione]	significantly reduced	significantly increased	significant improvement	significantly increased	tended to increase the degree of PPI, but the increases were not significant	tended to increase the degree of PPI, but the increases were not significant	significantly restored	significantly restored	no effect	
CC[N+](CC)(CC)CC [Tetraethylammonium (TEA), Tetraethylammonium]										inhibit the channels at low millimolar concentrations

Source: US11180461B2, “Triazoles as Kv3 inhibitors” (AUTIFONY THERAPEUTICS LIMITED, priority 2012, dated 2021)
